Experimental data from patent US12344603B2 (Genentech, Inc., priority 2020, dated 2025).
Structures can show the parent of a compound that is named as a salt.

These compounds were tested against IRE1α (Homo sapiens (Human), UniProt O75460, D688N) (assay: IRE1α TR-FRET competition binding assay (IRE1α HTRF)). Conditions: TR-FRET competition binding to kinase domain of IRE1α.
How it was run: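 Kinase domain (0.25 nM) pre-bound to 2 nM Eu anti-His antibody for 1 h at 4° C in HEPES pH 7.5/MgCl2/Brij 35/DTT/gamma globulin buffer, then mixed with compounds and 2 nM Alexa 647 ATP-competitive probe. 1 h at room temperature; probe displacement read as TR-FRET (Ex 347 nm, Em 665/615 nm).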

Sequence of IRE1α (O75460 547-977 D688N): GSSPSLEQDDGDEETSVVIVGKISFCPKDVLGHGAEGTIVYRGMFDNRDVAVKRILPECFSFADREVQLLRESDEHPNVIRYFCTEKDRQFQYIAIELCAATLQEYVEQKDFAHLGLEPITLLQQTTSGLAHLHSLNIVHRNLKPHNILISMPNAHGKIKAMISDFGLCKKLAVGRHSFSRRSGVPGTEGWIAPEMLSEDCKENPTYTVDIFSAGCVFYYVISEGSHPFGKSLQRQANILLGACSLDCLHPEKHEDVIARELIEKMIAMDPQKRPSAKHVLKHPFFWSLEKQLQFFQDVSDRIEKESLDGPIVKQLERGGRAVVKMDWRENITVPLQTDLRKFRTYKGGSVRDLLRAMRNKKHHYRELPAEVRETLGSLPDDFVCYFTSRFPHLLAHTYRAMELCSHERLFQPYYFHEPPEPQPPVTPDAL

| Structure (SMILES) | IC50 [pM] |
| --- | --- |
| CC(C)n1c(=O)c(-c2ccc(NS(=O)(=O)CCC(F)(F)F)c(F)c2)cc2cnc(NC3CCN(C)CC3)nc21 [Compound 200, 3,3,3-Trifluoro-N-(2-fluoro-4-(8-isopropyl-2-((1-methylpiperidin-4-yl)amino)-7-oxo-7,8-dihydropyrido[2,3-d]pyrimidin-6-yl)phenyl)propane-1-sulfonamide formate] | 20000 |
| CC(C)n1c(=O)c(-c2cc(F)c(NS(=O)(=O)Cc3ccccc3F)c(F)c2F)cc2cnc(N[C@@H]3CNC[C@@H](O)C3)nc21 (racemic) [Compound 87, 1-(2-Fluorophenyl)-N-(2,3,6-trifluoro-4-(2-((5-hydroxypiperidin-3-yl)amino)-8-isopropyl-7-oxo-7,8-dihydropyrido[2,3-d]pyrimidin-6-yl)phenyl)methanesulfonamide] | 630 |
| CCn1c(=O)c(-c2ccc(NS(=O)(=O)CCC(F)(F)F)c(F)c2F)cc2cnc(N[C@@H]3CNC[C@@H](F)C3)nc21 [Compound 14, N-(4-(8-Ethyl-2-(((3S,5S)-5-fluoropiperidin-3-yl)amino)-7-oxo-7,8-dihydropyrido[2,3-d]pyrimidin-6-yl)-2,3-difluorophenyl)-3,3,3-trifluoropropane-1-sulfonamide] | 5000 |
| O=c1c(-c2ccc(NS(=O)(=O)Cc3ccccc3F)c(F)c2)cc2cnc(N[C@@H]3CNC[C@@H](F)C3)nc2n1CCO [Compound 208, N-[2-Fluoro-4-[2-[[(3S,5S)-5-fluoro-3-piperidyl]amino]-8-(2-hydroxyethyl)-7-oxo-pyrido[2,3-d]pyrimidin-6-yl]phenyl]-1-(2-fluorophenyl)methanesulfonamide] | 1200 |
| CC(C)n1c(=O)c(-c2cc(F)c(NS(=O)(=O)Cc3ccccc3F)c(F)c2F)cc2cnc(N[C@H]3CNC[C@@H](O)C3)nc21 [Compound 88, 1-(2-Fluorophenyl)-N-(2,3,6-trifluoro-4-(2-(((3R,5S)-5-hydroxypiperidin-3-yl)amino)-8-isopropyl-7-oxo-7,8-dihydropyrido[2,3-d]pyrimidin-6-yl)phenyl)methanesulfonamide] | 8500 |
| Cc1ccc(CS(=O)(=O)Nc2c(F)cc(-c3cc4cnc(N[C@H]5CC[C@H](N(C)C)CC5)nc4n(C(C)C)c3=O)c(F)c2F)c(C#N)c1 [Compound 113, 1-(2-Cyano-4-methylphenyl)-N-(4-(2-(((1r,4r)-4-(dimethylamino)cyclohexyl)amino)-8-isopropyl-7-oxo-7,8-dihydropyrido[2,3-d]pyrimidin-6-yl)-2,3,6-trifluorophenyl)methanesulfonamide] | 220 |
| CC(C)n1c(=O)c(-c2ccc(NS(=O)(=O)CCC(F)(F)F)c(F)c2F)cc2cnc(N[C@H]3CC[C@H](N(C)C)CC3)nc21 [Compound 197, N-(4-(2-(((1,4-trans)-4-(Dimethylamino)cyclohexyl)amino)-8-isopropyl-7-oxo-7,8-dihydropyrido[2,3-d]pyrimidin-6-yl)-2,3-difluorophenyl)-3,3,3-trifluoropropane-1-sulfonamide] | 260 |
| CC(C)n1c(=O)c(-c2cc(F)c(NS(=O)(=O)Cc3ccccc3)c(F)c2F)cc2cnc(N[C@@H]3CNC[C@@](C)(F)C3)nc21 [Compound 27, 1-Phenyl-N-(2,3,6-trifluoro-4-(2-(((3S,5S)-5-fluoro-5-methylpiperidin-3-yl)amino)-8-isopropyl-7-oxo-7,8-dihydropyrido[2,3-d]pyrimidin-6-yl)phenyl)methanesulfonamide] | 220 |
| CC(C)n1c(=O)c(-c2cc(F)c(NS(=O)(=O)Cc3ccccc3C#N)c(F)c2F)cc2cnc(N[C@@H]3CNC[C@@H](F)C3)nc21 [Compound 32, 1-(2-Cyanophenyl)-N-(2,3,6-trifluoro-4-(2-(((3S,5S)-5-fluoropiperidin-3-yl)amino)-8-isopropyl-7-oxo-7,8-dihydropyrido[2,3-d]pyrimidin-6-yl)phenyl)methanesulfonamide] | 340 |
| CC(C)n1c(=O)c(-c2ccc(NS(=O)(=O)CCC(F)(F)F)c(F)c2)nc2cnc(N[C@H]3CC[C@H](N(C)C)CC3)nc21 [Compound 67, N-(4-(2-(((1r,4r)-4-(Dimethylamino)cyclohexyl)amino)-8-isopropyl-7-oxo-7,8-dihydropteridin-6-yl)-2-fluorophenyl)-3,3,3-trifluoropropane-1-sulfonamide] | 180 |
| CC(C)n1c(=O)c(-c2ccc(NS(=O)(=O)CC3C(F)(F)C34CCC4)c(F)c2)nc2cnc(N[C@H]3CC[C@H](N(C)C)CC3)nc21 (stereo partly drawn) [Example 257, 1-(2,2-Difluorospiro[2.3]hexan-1-yl)-N-[4-[2-[[4-(dimethylamino)cyclohexyl]amino]-8-isopropyl-7-oxo-pteridin-6-yl]-2-fluoro-phenyl]methanesulfonamide] | 200 |
| CC(C)n1c(=O)c(-c2cc(F)c(NS(=O)(=O)Cc3ccccc3)c(F)c2F)cc2cnc(N[C@@H]3CNC[C@@H](F)C3)nc21 [Compound 26, 1-Phenyl-N-(2,3,6-trifluoro-4-(2-(((3S,5S)-5-fluoropiperidin-3-yl)amino)-8-isopropyl-7-oxo-7,8-dihydropyrido[2,3-d]pyrimidin-6-yl)phenyl)methanesulfonamide] | 190 |
| CC(C)n1c(=O)c(-c2ccc(NS(=O)(=O)CCC3CC3(F)F)c(F)c2)nc2cnc(N[C@H]3CC[C@H](N(C)C)CC3)nc21 (stereo partly drawn) [Example 259, 2-(2,2-Difluorocyclopropyl)-N-[4-[2-[[4-(dimethylamino)cyclohexyl]amino]-8-isopropyl-7-oxo-pteridin-6-yl]-2-fluoro-phenyl]ethanesulfonamide] | 200 |
| CC(C)n1c(=O)c(-c2cc(F)c(NS(=O)(=O)Cc3ccc(C(F)F)cc3)c(F)c2)nc2cnc(N[C@H]3CC[C@H](N(C)C)CC3)nc21 [Example 244, 1-[4-(Difluoromethyl)phenyl]-N-[4-[2-[[4-(dimethylamino)cyclohexyl]amino]-8-isopropyl-7-oxo-pteridin-6-yl]-2,6-difluoro-phenyl]methanesulfonamide] | 200 |
| CC(C)n1c(=O)c(-c2ccc(NS(=O)(=O)CCC(F)(F)F)c(F)c2)nc2cnc(N[C@@H]3CNC[C@@H](F)C3)nc21 [Compound 73, 3,3,3-Trifluoro-N-[2-fluoro-4-[2-[[(3S,5S)-5-fluoro-3-piperidyl]amino]-8-isopropyl-7-oxo-pteridin-6-yl]phenyl]propane-1-sulfonamide] | 500 |
| CC(C)n1c(=O)c(-c2ccc(NS(=O)(=O)CCCC3CC3)c(F)c2)cc2cnc(N[C@H]3CC[C@H](N(C)C)CC3)nc21 [Example 232, 3-cyclopropyl-N-(4-(2-(((1r,4r)-4-(dimethyl-amino)cyclohexyl)-amino)-8-isopropyl-7-oxo-7,8-dihydropyrido-[2,3-d]pyrimidin-6-yl)-2-fluorophenyl)propane-1-sulfonamide] | 200 |
| COc1cccc(CS(=O)(=O)Nc2c(F)cc(-c3cc4cnc(N[C@@H]5CNC[C@@H](F)C5)nc4n(C(C)C)c3=O)c(F)c2F)c1 [Compound 31, 1-(3-Methoxyphenyl)-N-(2,3,6-trifluoro-4-(2-(((3S,5S)-5-fluoropiperidin-3-yl)amino)-8-isopropyl-7-oxo-7,8-dihydropyrido[2,3-d]pyrimidin-6-yl)phenyl)methanesulfonamide hydrochloride] | 110 |
| CC(C)n1c(=O)c(-c2ccc(NS(=O)(=O)CCC(F)(F)F)c(F)c2)cc2cnc(N[C@H]3CC[C@H](N4CCC4)CC3)nc21 [Compound 198, N-(4-(2-(((1,4-trans)-4-(Azetidin-1-yl)cyclohexyl)amino)-8-isopropyl-7-oxo-7,8-dihydropyrido[2,3-d]pyrimidin-6-yl)-2-fluorophenyl)-3,3,3-trifluoropropane-1-sulfonamide formate] | 410 |
| CC(C)n1c(=O)c(-c2ccc(NS(=O)(=O)C3C4CCCCC43)c(F)c2)nc2cnc(N[C@H]3CC[C@H](N(C)C)CC3)nc21 (stereo partly drawn) [Example 275, N-[4-[2-[[4-(Dimethylamino)cyclohexyl]amino]-8-isopropyl-7-oxo-pteridin-6-yl]-2-fluoro-phenyl]norcarane-7-sulfonamide] | 400 |
| CC(C)n1c(=O)c(-c2cc(F)c(NS(=O)(=O)Cc3ccn(C)n3)c(F)c2F)cc2cnc(N[C@@H]3CNC[C@@H](F)C3)nc21 [Compound 38, 1-(1-Methyl-1H-pyrazol-3-yl)-N-(2,3,6-trifluoro-4-(2-(((3S,5S)-5-fluoropiperidin-3-yl)amino)-8-isopropyl-7-oxo-7,8-dihydropyrido[2,3-d]pyrimidin-6-yl)phenyl)methanesulfonamide] | 390 |
| CC(C)n1c(=O)c(-c2cc(F)c(NS(=O)(=O)CCC(F)(F)F)c(F)c2)cc2cnc(N[C@H]3CC[C@H](N(C)C)CC3)nc21 [Compound 70, N-(4-(2-(((1,4-trans)-4-(Dimethylamino)cyclohexyl)amino)-8-isopropyl-7-oxo-7,8-dihydropyrido[2,3-d]pyrimidin-6-yl)-2,6-difluorophenyl)-3,3,3-trifluoropropane-1-sulfonamide] | 260 |
| CC(C)n1c(=O)c(-c2ccc(NS(=O)(=O)CCC(F)(F)F)c(F)c2)cc2cnc(N[C@H]3CCC[C@H](N(C)C)C3)nc21 [Compound 104, hydrochloride] | 72000 |
| O=c1c(-c2ccc(NS(=O)(=O)Cc3ccccc3)c(F)c2F)cc2cnc(N[C@@H]3CNC[C@@H](F)C3)nc2n1CCF [Compound 53, N-(2,3-Difluoro-4-(8-(2-fluoroethyl)-2-(((3S,5S)-5-fluoropiperidin-3-yl)amino)-7-oxo-7,8-dihydropyrido[2,3-d]pyrimidin-6-yl)phenyl)-1-phenylmethanesulfonamide] | 710 |
| CC(C)n1c(=O)c(-c2ccc(NS(=O)(=O)CCC(F)(F)F)c(F)c2)cc2cnc(NC3CCC(N(C)C)C(F)C3)nc21 (single isomer, unassigned) [Compound 110A, N-(4-(2-((4-(Dimethylamino)-3-fluorocyclohexyl)amino)-8-isopropyl-7-oxo-7,8-dihydropyrido[2,3-d]pyrimidin-6-yl)-2-fluorophenyl)-3,3,3-trifluoropropane-1-sulfonamide] | 180 |
